The source of these data is patent US7125854B2, “Bicyclic carbohydrates as antiprotozoal bioactive for the treatment of infections caused by parasites” (Kemin Pharma B.V.B.A., priority 2003, dated 2006).

Like-named read-outs stand apart in the source and are kept apart here.

Data set [1] deals with P. falciparum. Put plainly: WHO screening against P. falciparum (Table 1). The conditions noted are these: Plasmodium falciparum; Table 1, WHO screening. The format is cell-based. The text has this: (§1) Compound A1 was screened against Trypanosoma brucei by World Health Organization (Switzerland) using its established screening service.
Data set [2] relates to P. falciparum. As to the kind of experiment: Screening against P. falciparum (Table 2). The format is cell-based, Plasmodium falciparum.
The subject of data set [3] is T. cruzi. As to the kind of experiment: WHO screening against T. cruzi (Table 1). The format is cell-based, Trypanosoma cruzi. The conditions noted are these: Table 1, WHO screening.
Data set [4] concerns T. brucei rhodesiense. As to the kind of experiment: WHO screening against Trypanosoma brucei (Table 1). The data set is classed as cell-based. The conditions noted are these: read-out: IC50 T. brucei rhodesiense.
Excerpt: as §1

The subject of the next data set is human cell line (MRC-5). As to the kind of experiment: Cytotoxicity assay on a human cell line (MRC-5). The data set is classed as cell-based. The conditions noted are these: read-out: Cytox.
Data set [5] deals with T. cruzi. As to the kind of experiment: Screening against T. cruzi (Table 2). The format is cell-based, Trypanosoma cruzi.
Data set [6] has as its system T. brucei rhodesiense. As to the kind of experiment: Screening against T. brucei rhodesiense (Table 2). The format is cell-based, Trypanosoma brucei rhodesiense.
Data set [7] concerns Leishmania donovani MHOM/ET/67/L82. As to the kind of experiment: Leishmania donovani amastigotes in primary peritoneal mouse macrophages, parasite growth after 96 hours. The data set is classed as cell-based. To be noted: 96 hours of incubation, read-out: IC50 L. donovani. Here is the method:
One strain of Leishmania spp. (Leishmania.donovani MHOM/ET/67/L82) is used. The strain is maintained in the hamster. Amastigotes are collected from the spleen of an infected hamster and spleen parasite burden is assessed using the Stauber technique or amastigotes are counted in the haemocytometer after 1:100 dilution in trypan blue.
Primary peritoneal mouse (CDI or NMRI) macrophages are collected 1 day after a macrophage production stimulation with an i.p injection of 2 ml of 2% starch in distilled water. All cultures and assays are conducted at 37° C. under an atmosphere of 5% CO2. Ten mg/ml compound stock solutions are prepared as advised by the supplier, otherwise dissolved in 100% DMSO. Stock solutions are kept at 4° C. for a maximum of 2 weeks, thereafter at −20° C. The compounds are pre-diluted to 1 mg/ml. Assays are performed in sterile 16-well tissue culture slides, each well containing 100 μl of the compound dilutions together with 100 μl of macrophage/parasite inoculum (4×10^5 macrophages/ml and 1.2×10^6 parasites/ml). The inoculum is prepared in RPMI-1640 medium, supplemented with 10% heat inactivated fetal calf serum. […] After 96 hours of incubation, parasite growth is microscopically assessed after staining the cells with a 10% Giemsa solution. The results are expressed as IC50 calculated by linear regression analysis. […]

Another data set relates to L-6 mammalian cells. Put plainly: Cytotoxicity assay on L-6 mammalian cells. The data set is classed as cell-based.
In the next data set the test system is sleeping sickness. The conditions noted are these: cited from earlier work.
The mark [8] stands for this setting: Trypanosoma brucei, RHODESIENSE

`CCN(CC)CCCC(C)Nc1ccnc2cc(Cl)ccc12` (stereo not shown) [Chloroquine]: the IC50 with P. falciparum [1] is 14 nM; in the data set with P. falciparum [2] (Plasmodium falciparum), 5 nM.

Regarding `O[C@@H]1[C@@H](O)[C@H](Sc2ccccc2)O[C@@H]2CO[C@@H](c3ccccc3)O[C@@H]12` [Compound A1], the IC50 in the data set with T. cruzi [3] is > 32000 nM; with T. brucei rhodesiense [4] (Table 1, WHO screening), 187 nM; in the data set with human cell line (MRC-5) it was > 32000 nM.

Regarding `OC1C(Cc2ccccc2)OC2COC(c3ccc(Cl)cc3)OC2C1O` (stereo not shown) [Compound A3], the IC50 is > 13300 nM in the data set on P. falciparum [2]; 14300 nM in the data set on T. cruzi [5]; 20400 nM with T. brucei rhodesiense [6]; < 980 nM in [7]; 60000 nM in the data set with L-6 mammalian cells.

As to `Nc1nc(N)nc(Nc2ccc([As]3SCC(CO)S3)cc2)n1` (stereo not shown) [Melarsoprol], in the data set with T. brucei rhodesiense [6] (setting [8]), the IC50 is 10 nM. Moreover, the “patients treated killed outright” value in the data set on sleeping sickness (patients, injected) is reported as 3–10%. For the same compound, in the data set on sleeping sickness (some areas of Africa (Omugo, Uganda; Ibba, South Sudan)), the “patients the drug fails to cure” value was 25–30%.

Regarding `CCCCCCCCCCCCCCCCOP(=O)([O-])OCC[N+](C)(C)C` [Miltefosine], the IC50 in data set [7] (Leishmania donovani, Macrophage) was 470 nM.

In the data set with T. cruzi [3] (Trypanosoma cruzi), `CC1CS(=O)(=O)CCN1/N=C/c1ccc([N+](=O)[O-])o1` (stereo not shown) [Nifurtimox] displayed an IC50 of 1240 nM.

As to `Cc1ccc(C(=O)Nc2ccc(S(=O)(=O)O)c3cc(S(=O)(=O)O)cc(S(=O)(=O)O)c23)cc1NC(=O)c1cccc(NC(=O)Nc2cccc(C(=O)Nc3cc(C(=O)Nc4ccc(S(=O)(=O)O)c5cc(S(=O)(=O)O)cc(S(=O)(=O)O)c45)ccc3C)c2)c1` [Suramin], the IC50 with T. brucei rhodesiense [4] (setting [8]) came out at 210 nM.
